Experimental data reported in PubChem BioAssay AID328 (DTP/NCI, 2004).
“And” between values parts separate entries of the source, which are not always exact repeats. Identical values can stand only once. Toxic doses and inconclusive results are not listed.

System: BDF1 mice, P388 leukemia ip, median survival T/C
Assay: NCI In Vivo Anticancer Drug Screen. Data for tumor model P388 Leukemia (intraperitoneal) in B6D2F1 (BDF1) mice
Details: endpoint: median survival time, higher = longer survival
Outline: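 Read-out is survival of treated animals expressed relative to the vehicle group, as a T/C ratio.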

[1] = dose: 12.5 mg/kg/injection, schedule: Q01DX009 (ip), vehicle: Klucel (hydroxypropylcellulose) (HPC)
[2] = dose: 25.0 mg/kg/injection, schedule: Q01DX009 (ip), vehicle: Klucel (hydroxypropylcellulose) (HPC)
[3] = dose: 50.0 mg/kg/injection, schedule: Q01DX009 (ip), vehicle: Klucel (hydroxypropylcellulose) (HPC)
[4] = dose: 50.0 mg/kg/injection, schedule: Q01DX009 (ip), vehicle: saline with Tween-80
[5] = dose: 50.0 mg/kg/injection, schedule: Q04DX003 (ip), vehicle: saline with Tween-80
[6] = dose: 100.0 mg/kg/injection, schedule: Q01DX009 (ip), vehicle: saline with Tween-80
[7] = dose: 100.0 mg/kg/injection, schedule: Q04DX003 (ip), vehicle: saline with Tween-80
[8] = dose: 200.0 mg/kg/injection, schedule: Q01DX009 (ip), vehicle: saline with Tween-80
[9] = dose: 200.0 mg/kg/injection, schedule: Q04DX003 (ip), vehicle: saline with Tween-80
[10] = dose: 400.0 mg/kg/injection, schedule: Q01DX009 (ip), vehicle: saline with Tween-80

With `ClC(CN1CCCCC1)C(Cl)c1ccccc1` (stereo unspecified) the T/C (dose: 50.0 mg/kg/injection, schedule: Q04DX003 (ip), vehicle: saline sonified) was 108 % of control, the T/C (dose: 100.0 mg/kg/injection, schedule: Q04DX003 (ip), vehicle: saline sonified) was 112 % of control and the T/C (dose: 200.0 mg/kg/injection, schedule: Q04DX003 (ip), vehicle: saline sonified) was 104 % of control.

For `O=C1CC(c2ccc(Br)cc2)N(c2ccc([As](=O)(O)O)cc2)C1=O` (stereo unspecified), the T/C (dose: 3.13 mg/kg/injection, schedule: Q01DX009 (ip), vehicle: saline with Tween-80) was 90 % of control, the T/C (dose: 6.25 mg/kg/injection, schedule: Q01DX009 (ip), vehicle: saline with Tween-80) was 109 % of control and the T/C (dose: 12.5 mg/kg/injection, schedule: Q01DX009 (ip), vehicle: saline with Tween-80) was 109 % of control.

`O=C(O)c1c(-c2ccccc2)[nH]c2cc(Cl)ccc2c1=O` was tested, and the T/C (dose: 6.25 mg/kg/injection, schedule: Q01DX009 (ip), vehicle: Klucel (hydroxypropylcellulose) (HPC)) was 95 % of control, the T/C [1] was 90 % of control and 109 % of control and the T/C [2] was 100 % of control. For the same molecule, the T/C [3] was 95 % of control, the T/C [4] was 114 % of control and the T/C [5] was 122 % of control. The T/C (dose: 90.0 mg/kg/injection, schedule: Q04DX003 (ip), vehicle: saline with Tween-80) was 109 % of control, the T/C [6] was 118 % of control and the T/C [7] was 113 % of control. The T/C (dose: 133.0 mg/kg/injection, schedule: Q04DX003 (ip), vehicle: saline with Tween-80) was 112 % of control and 113 % of control, the T/C [8] was 100 % of control and the T/C [9] was 108 % of control and 109 % of control. The T/C (dose: 300.0 mg/kg/injection, schedule: Q04DX003 (ip), vehicle: saline with Tween-80) was 104 % of control.

In the case of `O=C(/C=C(\Cl)C(=O)NO)NO`, the T/C (dose: 11.0 mg/kg/injection, schedule: Q01DX009 (ip), vehicle: saline) is reported as 103 % of control, the T/C (dose: 16.0 mg/kg/injection, schedule: Q01DX009 (ip), vehicle: saline) is reported as 107 % of control and the T/C (dose: 100.0 mg/kg/injection, schedule: Q01DX009 (ip), vehicle: saline) is reported as 154 % of control.

For `Nc1nc(SCC(=O)c2ccccc2)c2[nH]cnc2n1`, the T/C (dose: 100.0 mg/kg/injection, schedule: Q01DX009 (ip), vehicle: saline sonified) was 115 % of control, the T/C [7] was 109 % of control and the T/C (dose: 200.0 mg/kg/injection, schedule: Q01DX009 (ip), vehicle: saline sonified) was 110 % of control. The T/C [9] was 113 % of control, the T/C (dose: 400.0 mg/kg/injection, schedule: Q01DX009 (ip), vehicle: saline sonified) was 110 % of control and the T/C (dose: 400.0 mg/kg/injection, schedule: Q04DX003 (ip), vehicle: saline with Tween-80) was 118 % of control.

`CC(C)CCOC(=O)CN(CC(=O)OCCC(C)C)c1ccccc1` was tested, and the T/C [6] was 100 % of control, the T/C [8] was 100 % of control and the T/C [10] was 95 % of control.

With `CCCOP(=S)(N1CC1)N1CC1` the T/C (dose: 25.0 mg/kg/injection, schedule: Q01DX009 (ip), vehicle: other) was 100 % of control, the T/C (dose: 50.0 mg/kg/injection, schedule: Q04DX003 (ip), vehicle: Klucel (hydroxypropylcellulose) (HPC)) was 116 % of control and the T/C (dose: 100.0 mg/kg/injection, schedule: Q01DX009 (ip), vehicle: Klucel (hydroxypropylcellulose) (HPC)) was 100 % of control. For the same molecule, the T/C (dose: 100.0 mg/kg/injection, schedule: Q01DX009 (ip), vehicle: other) was 150 % of control and the T/C (dose: 200.0 mg/kg/injection, schedule: Q04DX003 (ip), vehicle: Klucel (hydroxypropylcellulose) (HPC)) was 183 % of control.

For `Clc1ccc(C(Cl)(Cl)Cl)cc1Cl`, the T/C [1] was 95 % of control, the T/C [2] was 100 % of control and the T/C [3] was 100 % of control.

In the case of `C[C@]12C=CC(=O)C[C@@H]1CC[C@@H]1[C@@H]2C(=O)C[C@]2(C)C(=O)CC[C@@H]12`, the T/C [6] is reported as 100 % of control, the T/C [8] is reported as 100 % of control and the T/C [10] is reported as 109 % of control.

With `O=S1(=O)CCN(C2CC2)CC1` the T/C [3] was 104 % of control.

With `O=Cc1[nH]c(=O)[nH]c(=O)c1Br` the T/C [5] was 112 % of control.

`CNC(=O)OCCN(CCOC(=O)NC)C(=O)N1c2ccccc2Sc2ccccc21` was tested, and the T/C (dose: 25.0 mg/kg/injection, schedule: Q01DX009 (ip), vehicle: saline with Tween-80) was 95 % of control and 107 % of control, the T/C [4] was 98 % of control and the T/C [6] was 98 % of control and 116 % of control. The T/C [8] was 115 % of control.

In the case of `OCC1CC1c1ccccc1` (stereo unspecified), the T/C [4] is reported as 101 % of control, the T/C [6] is reported as 102 % of control and the T/C [8] is reported as 109 % of control.
